# Results published in article PMC9171197, “The Impact of Chromate on Pseudomonas aeruginosa Molybdenum Homeostasis” (Frontiers in Microbiology, 2022).
# Read-outs that look alike come from different tables or passages of the source.
# Target: T1, P. aeruginosa PAO1 ModA (Pseudomonas aeruginosa, UniProt Q9I2N2)
# T1 construct: N-terminal His6 tag (pMCSG7) cleaved by TEV protease; E. coli BL21-Gold (DE3); metal-free
# Assay: isothermal titration calorimetry
# Type: binding
# Text: isothermal titration calorimetry on P. aeruginosa PAO1 ModA
# T1 sequence (Q9I2N2 23-251): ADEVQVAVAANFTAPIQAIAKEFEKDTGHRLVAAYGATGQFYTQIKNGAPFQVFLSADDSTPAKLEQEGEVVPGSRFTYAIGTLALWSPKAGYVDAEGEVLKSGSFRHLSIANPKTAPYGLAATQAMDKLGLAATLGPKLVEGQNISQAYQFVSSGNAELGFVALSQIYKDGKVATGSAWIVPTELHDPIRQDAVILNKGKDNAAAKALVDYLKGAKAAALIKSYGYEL
compound,measurement,setting,value
"[O]=[W](=[O])([OH])[OH] [WO, tungstate]",Kd,read-out: WO-ModA,1.2 ± 2 nM
"[O]=[Cr](=[O])([OH])[OH] [CrO, chromate]",Kd,read-out: CrO-ModA,927 ± 87.7 nM
"[O]=[Mo](=[O])([OH])[OH] [MoO, molybdate]",Kd,read-out: MoO-ModA,1 ± 1.3 nM
